# Molecular target: T1, NDH-2 from S. aureus (SaNDH2, type 2 NADH:quinone oxidoreductase) (Staphylococcus aureus, UniProt Q2FZV7)
# T1 construct: gene SAOUHSC_00878; recombinant NDH-2
# Test: steady-state NADH oxidation assay at […] nm with DMN as electron acceptor, […] enzyme
# Assay type: biochemical
# T1 sequence (Q2FZV7 whole entry): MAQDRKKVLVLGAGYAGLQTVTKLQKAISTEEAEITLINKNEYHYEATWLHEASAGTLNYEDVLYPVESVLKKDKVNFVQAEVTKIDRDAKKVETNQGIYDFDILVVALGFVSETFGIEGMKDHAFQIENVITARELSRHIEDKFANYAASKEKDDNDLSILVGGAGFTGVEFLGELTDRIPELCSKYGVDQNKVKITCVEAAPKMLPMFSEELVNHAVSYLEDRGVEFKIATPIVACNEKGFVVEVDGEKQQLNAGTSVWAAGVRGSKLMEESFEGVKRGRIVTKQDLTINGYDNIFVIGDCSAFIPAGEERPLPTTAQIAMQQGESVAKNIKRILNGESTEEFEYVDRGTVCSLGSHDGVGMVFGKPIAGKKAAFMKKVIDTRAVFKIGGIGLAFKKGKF
smiles,measurement,value
COc1ccc2nc(C)ccc2c1 [compound 15],Ki,8.9 ± 1 µM
